Experimental data as given in article PMC6373673, “Purified PEGylated human glucagon-like peptide-2 reduces the severity of irradiation-induced acute radiation enteritis in rats” (Journal of Radiation Research, 2018).

Assays:
[1] = GLP-2 in vivo, introduction statement, no reference given; cited from earlier work
Text: Glucagon-like peptide-2 (GLP-2) is a 33-amino acid peptide derived from the post-translational processing of proglucagon in enteroendocrine L-cells and cerebral neurons. GLP-2 exerts diverse effects related to the regulation of gastrointestinal growth and function, including stimulation of mucosal growth, inhibition of apoptosis, increased nutrient absorption, inhibition of gastric emptying and gastric acid secretion, reduction of intestinal permeability, stimulation of intestinal blood flow, and relaxation of intestinal smooth muscle. GLP-2 h ...

[2] = tested on: oxidative stress markers (MDA, SOD, GSH, GSH-Px) in the small intestine; test: Intestinal MDA, SOD, GSH and GSH-Px (commercial assay kits) after X-ray irradiation; format: in vivo, Sprague Dawley (SD) rats; conditions: SD rats, 8 Gy abdominal X-ray; for Intestinal GSH-Px activity / Intestinal SOD activity / Intestinal content of GSH / Intestinal content of MDA: small intestine 48 h after, mean ± S.D., n = 10
Text: (§1) Sixty adult male Sprague Dawley (SD) rats weighing 220–250 g were included in our study. Rats were subjected to 1 week of preliminary conditioning, during which time they received standard pellet rat chow and water ad libitum. They were housed in a temperature-and humidity-controlled environment, two animals per cage, with a 12-h light/12-h dark cycle. The Principles of Laboratory Animal Care (NIH Publication 85e23, revised 1996) were followed. Animal study protocols were approved by the Ethics Committee of the Fourth Military Medical University. The experiment was carried out at the Department of Pharmacy, Tangdu Hospital, Fourth Military Medical University.
(§2) X-ray irradiation was performed using a linear accelerator (Siemens primask) adjusted to provide X-ray irradiation, and carried out at the Department of Radiology and Oncology at the Tangdu Hospital. All of the animals were anesthetized with an intramuscular injection of pentobarbital sodium (100 mg/kg) and subjected to a single dose of 8 Gy abdominal X-radiation. The dose was delivered at a rate of 400 monitor units/min (1100 rad, 116.5 cGy/min, 100 cm source–skin distance) using a conventional radiation source, while the other parts of the body were carefully shielded.
(§3) Rats were randomized into six groups (Groups A–F). […] The remaining rats were subjected to a single dose of 8 Gy of abdominopelvic X-radiation and randomized further into five groups (Groups B–F). […] Briefly, rats were anesthetized with 100 mg/kg pentobarbital sodium, positioned supine, and subjected to a single fraction of 8 Gy delivered at a specific depth through abdominopelvic fields using X-rays at the rate of 0.74 Gy/min, while the other parts of the body were carefully shielded. Radiated rats were allowed to recover from the anesthetic and GLP-2 or Mono-PEG-hGLP-2 was administered by intraperitoneal injection. • Group A: non-X-ray irradiated (control). • Group B: X-ray irradiated. • Group C: pretreated with 3 μg of Mono-PEG-hGLP-2 in 0.3 ml of saline 5 min before X-ray irradiation. • Group D: pretreated with 10 μg of Mono-PEG-hGLP-2 in 0.3 ml of saline 5 min before X-ray irradiation. • Group E: pretreated with 30 μg of Mono-PEG-hGLP-2 in 0.3 ml of saline 5 min before X-ray irradiation. • Group F: pretreated with 30 μg of GLP-2 in 0.3 ml of saline 5 min before X-ray irradiation.
(§4) Malondialdehyde (MDA) levels, glutathione (GSH) content, and the activities of super oxide-dismutase (SOD) and glutathione peroxidase (GPx) were determined in the small intestine using commercial assay kits (Biyuntian Co., China) according to the manufacturer’s protocols. The protein content ratio was determined by Pierce™ BCA Protein Assay Kit (Thermo Fisher Scientific Inc., Rockford, IL, USA). All of the values were normalized to total intestinal protein. Small intestine tissue (20 mg) was homogenized in lysis buffer (150 mM NaCl, 0.1% SDS, 0.1% NP-40, 20 mM Tris-HCl pH 7.5) and protease inhibitor cocktail using a Tissue Lyser II homogenizer (Qiagen; Hilden, Germany). Total protein concentrations of tissue homogenates were detected by a Pierce™ BCA Protein Assay Kit (Thermo Scientific; Rockford, IL, USA). The levels of tumor necrosis factor-alpha (TNF-α) (Invitrogen; Carlsbad, CA, USA) and interleukin-2 (IL-2) (Bioo Scientific; Austin, TX, USA) in the tissue samples were determined using commercially available sandwich ELISA kits, according to the protocol recommended by the manufacturer. Results were recorded as the ratio of detected protein (TNF-α, IL-2) (pg/ml) to the amount of total protein (mg/ml).

[3] = tested on: irradiation-induced acute radiation enteritis in rats; test: Clinical, gross, histological and morphometric changes of the small intestine in irradiation-induced acute radiation enteritis; format: in vivo, Sprague Dawley (SD) rats; parameters: key to Shortening of villi (histologic) / Architectural disarray (histologic) / Diarrhea / Abdominal distention / Intestinal dilatation (gross) / Mucosal ulceration (gross) / Edema (gross): (–) = absent; (+) = present; Number of villi: unit not given here; conditions: SD rats, 8 Gy abdominal X-ray; for Abdominal distention / Architectural disarray (histologic) / Diarrhea / Edema (gross) / Intestinal dilatation (gross) / Mucosal ulceration (gross) / Shortening of villi (histologic): killed 48 h after; for Protection against radiation-induced intestinal injury (villi integrity, histology): i.p. pretreatment 5 min before irradiation, result in words
Text: as §1, §2, §3
Animals were killed 48 h after X-ray irradiation, and laparotomies were performed. Immediately after the laparotomy, the small intestine (jejunum) was examined and removed. Two-centimeter segments of the jejunum and segments of the intestine showing edema and change in color (purple) were resected. Luminal contents were washed with 0.9% NaCl by injecting saline through the lumen of the small bowel segments. Tissue samples were pinned out on a paraffin block and floated upside down in 10% buffered formalin overnight, dehydrated, and embedded in paraffin. Sections of 4 μm were cut with a Leica sliding microtome (SM 2000R, Nussbach, Germany) and slides, containing a minimum of 10 sections, were stained with hematoxylin and erosin stains. Some representative intestine sections were processed for ultrastructural studies. Sections were evaluated quantitatively and qualitatively in a blinded fashion.
For histological assessment, villous height (from the base to the tip of the villi), crypt height (from the base to the tip of each crypt), and the number of villi per square millimeter was determined based on individual intestinal segments at five separate microscopic fields for each animal. They were recorded as the mean values using ocular micrometer-adapted light microscopy at a magnification of ×100.

TNF-α = test: Intestinal TNF-α by sandwich ELISA after X-ray irradiation; format: in vivo, Sprague Dawley (SD) rats; conditions: SD rats, 8 Gy abdominal X-ray, small intestine homogenate 48 h after, mean ± S.D., n = 10
Text: as §1, §2
Rats were randomized into six groups (Groups A–F). […] The remaining rats were subjected to a single dose of 8 Gy of abdominopelvic X-radiation and randomized further into five groups (Groups B–F). […] Briefly, rats were anesthetized with 100 mg/kg pentobarbital sodium, positioned supine, and subjected to a single fraction of 8 Gy delivered at a specific depth through abdominopelvic fields using X-rays at the rate of 0.74 Gy/min, while the other parts of the body were carefully shielded. […]
as §4, with “All of the values were normalized to total intestinal protein. Small intestine tissue (20 mg) was homogenized in lysis buffer (150 mM NaCl, 0.1% SDS, 0.1% NP-40, 20 mM Tris-HCl pH 7.5) and protease inhibitor cocktail using a Tissue Lyser II homogenizer (Qiagen; Hilden, Germany).” left out

NF-κB = NF-κB expression in intestine (immunohistochemistry and Western blot) after X-ray irradiation; format: in vivo, Sprague Dawley (SD) rats; conditions: SD rats, 8 Gy abdominal X-ray
Text: as §1, §2
Rats were randomized into six groups (Groups A–F). […]
The expression of NF-κB was analyzed by Western blotting. […]

[4] = 30 μg i.p. 5 min before irradiation
[5] = 30 μg i.p. 5 min before irradiation, jejunum 48 h after, five microscopic fields per animal, ×100, mean ± SD
[6] = 30 μg i.p. in 0.3 ml saline 5 min before irradiation
[7] = 3 μg i.p. 5 min before irradiation
[8] = 10 μg i.p. 5 min before irradiation
[9] = 3 μg i.p. 5 min before irradiation, jejunum 48 h after, five microscopic fields per animal, ×100, mean ± SD
[10] = 3 μg i.p. in 0.3 ml saline 5 min before irradiation
[11] = 10 μg i.p. in 0.3 ml saline 5 min before irradiation

CC[C@H](C)[C@H](NC(=O)[C@H](Cc1ccccc1)NC(=O)[C@H](CC(=O)O)NC(=O)[C@H](CCCNC(=N)N)NC(=O)[C@H](C)NC(=O)[C@H](C)NC(=O)[C@H](CC(C)C)NC(=O)[C@H](CC(N)=O)NC(=O)[C@H](CC(=O)O)NC(=O)[C@H](CC(C)C)NC(=O)[C@@H](NC(=O)[C@@H](NC(=O)[C@H](CC(N)=O)NC(=O)[C@H](CCSC)NC(=O)[C@H](CCC(=O)O)NC(=O)[C@H](CC(=O)O)NC(=O)[C@H](CO)NC(=O)[C@H](Cc1ccccc1)NC(=O)[C@H](CO)NC(=O)CNC(=O)[C@H](CC(=O)O)NC(=O)[C@H](C)NC(=O)[C@@H](N)Cc1c[nH]cn1)[C@@H](C)O)[C@@H](C)CC)C(=O)N[C@@H](CC(N)=O)C(=O)N[C@@H](Cc1c[nH]c2ccccc12)C(=O)N[C@@H](CC(C)C)C(=O)N[C@H](C(=O)N[C@@H](CCC(N)=O)C(=O)N[C@H](C(=O)N[C@@H](CCCCN)C(=O)N[C@H](C(=O)N[C@H](C(=O)N[C@@H](CC(=O)O)C(N)=O)[C@@H](C)O)[C@@H](C)CC)[C@@H](C)O)[C@@H](C)CC [GLP-2, hGLP-2(1–33) amide, reference compound]
plasma half-life [1]: 7 min
Protective effect on intestinal antioxidant enzymes and inflammatory factors ([2]; 30 μg i.p. 5 min before irradiation, result in words): no significant protective effect
Intestinal GSH-Px activity [2, 4]: 246.1 ± 37.8 U/mg prot
Intestinal SOD activity [2, 4]: 35.27 ± 4.66 U/mg prot
Intestinal content of GSH [2, 4]: 18.22 ± 3.44 mg/g prot
Intestinal content of MDA [2, 4]: 5.51 ± 0.47 nmol/mg prot
Crypt height [3, 5]: 113.8 ± 10.9 μm
Height of villi [3, 5]: 229.7 ± 15.9 μm
Number of villi [3, 5]: 32.1 ± 4.1
Abdominal distention [3, 6]: +
Architectural disarray (histologic) [3, 6]: +
Diarrhea [3, 6]: +
Edema (gross) [3, 6]: +
Intestinal dilatation (gross) [3, 6]: +
Mucosal ulceration (gross) [3, 6]: +
Shortening of villi (histologic) [3, 6]: +
Protection against radiation-induced intestinal injury (villi integrity, histology) [3]: did not protect mice against radiation-induced intestinal injury
Intestinal content of TNF-α (TNF-α; [4]): 9.78 ± 1.06 pg/mg prot

Mono-PEG-hGLP-2: human GLP-2 peptide conjugated to one 5 kDa mPEG chain by reaction with mPEG5k-SPA
Intestinal GSH-Px activity [2, 7]: 331.2 ± 22.1 U/mg prot
Intestinal SOD activity [2, 7]: 40.47 ± 5.41 U/mg prot
Intestinal content of GSH [2, 7]: 20.22 ± 4.87 mg/g prot
Intestinal content of MDA [2, 7]: 5.27 ± 0.44 nmol/mg prot
Intestinal GSH-Px activity [2, 8]: 367.5 ± 42.3 U/mg prot
Intestinal SOD activity [2, 8]: 47.45 ± 8.24 U/mg prot
Intestinal content of GSH [2, 8]: 24.70 ± 10.22 mg/g prot
Intestinal content of MDA [2, 8]: 4.48 ± 0.37 nmol/mg prot
Intestinal GSH-Px activity [2, 4]: 412.7 ± 65.7 U/mg prot
Intestinal SOD activity [2, 4]: 56.11 ± 6.01 U/mg prot
Intestinal content of GSH [2, 4]: 24.01 ± 4.17 mg/g prot
Intestinal content of MDA [2, 4]: 4.01 ± 0.22 nmol/mg prot
Crypt height [3, 9]: 121.6 ± 6.3 μm
Height of villi [3, 9]: 268.1 ± 11.6 μm
Abdominal distention [3, 10]: +
Architectural disarray (histologic) [3, 10]: +
Diarrhea [3, 10]: –
Edema (gross) [3, 10]: +
Intestinal dilatation (gross) [3, 10]: +
Mucosal ulceration (gross) [3, 10]: +
Shortening of villi (histologic) [3, 10]: +
Height of villi ([3]; 10 μg i.p. 5 min before irradiation, jejunum 48 h after, five microscopic fields per animal, ×100, mean ± SD): 437.1 ± 19.4 μm
Abdominal distention [3, 11]: –
Architectural disarray (histologic) [3, 11]: –
Diarrhea [3, 11]: –
Edema (gross) [3, 11]: +
Intestinal dilatation (gross) [3, 11]: –
Mucosal ulceration (gross) [3, 11]: –
Shortening of villi (histologic) [3, 11]: +
Crypt height [3, 5]: 188.5 ± 8.3 μm
Height of villi [3, 5]: 507.9 ± 21.1 μm
Abdominal distention [3, 6]: –
Architectural disarray (histologic) [3, 6]: –
Diarrhea [3, 6]: –
Edema (gross) [3, 6]: –
Intestinal dilatation (gross) [3, 6]: –
Mucosal ulceration (gross) [3, 6]: –
Shortening of villi (histologic) [3, 6]: –
Protection against radiation-induced intestinal injury (villi integrity, histology) [3]: markedly protected the integrity of the villi and preserved the villous height
NF-κB staining in intestine versus X-ray-alone-treated rats (NF-κB; 3, 10, 30 μg i.p. 5 min before irradiation, immunohistological staining): decreased NF-κB staining in a dose-dependent manner
NF-κB expression in intestine versus model (NF-κB; moderate to high doses (10, 30 μg i.p.) before irradiation, P < 0.01): significantly inhibited NF-κB expression
Intestinal content of TNF-α (TNF-α; [7]): 7.68 ± 0.77 pg/mg prot
Intestinal content of TNF-α (TNF-α; [8]): 6.12 ± 1.01 pg/mg prot
Intestinal content of TNF-α (TNF-α; [4]): 4.78 ± 0.67 pg/mg prot
